{"source": "patent US6573236B2", "about": "“Inhibiting MOG-antibody binding” (The Regents of the University of California, priority 1998, dated 2003)", "key": {"[1]": {"system": "antigen-specific autoantibody in situ (marmoset EAE lesions)", "test": "Immunogold-labeled peptide staining of marmoset EAE CNS tissue sections", "assay_type": "binding, C. jacchus marmoset", "conditions": "conjugates 1:100, silver enhancement", "protocol": "Immunogold labeling was performed on ultra-thin sections of frozen or fixed tissues. Gold conjugates were prepared of (1) three MOG peptides (amino acids [aa] 1-20, aa 21-40, and aa 41-60 of human MOG (SEQ ID NO:3)) with known encephalitogenic activity in marmosets; (2) one MOG peptide that has been shown not to be encephalitogenic in marmosets (aa 101-120); (3) one human myelin basic protein (MBP) peptide (aa 82-101) that is encephalitogenic in marmosets and immunodominant in humans with the DR2 haplotype; and, as a control, (4) a peptide of mouse serum albumin (MSA; aa 560-574). Peptides having human MOG subsequences were synthesized using standard Fmoc chemistry and purified (>95%) by HPLC (Research Genetics Inc., Huntsville, Ala.): MOG 1-20, MOG 21-40, […], MBP 82-101, and MSA 560-574. The gold conjugates were synthesized by using monosulfo-N-hydroxy succinimide-Nanogold labeling reagent (particle diameter, 1.4 nm), according to the manufacturer's instructions (Nanoprobes, Stonybrook, N.Y.), followed by extensive dialysis to remove unreacted peptide. Immunoreactivity was detected on 1-μm epoxy sections of marmoset spinal cord tissue and active MS lesions. For this, sections were etched with sodium ethoxide, equilibrated in PO4-buffered saline containing 0.05% Triton X-100, and blocked with 10% normal rabbit serum. Sections were incubated with peptide-immunogold conjugates (1:100 in buffer) for 2 hours at room temperature. After washing, detection was performed by using silver enhancement (Nanoprobes). Sections were counterstained with toluidine blue. […]\n(§1) As controls, sections were either pretreated with unlabeled encephalitogenic MOG peptides or MBP to block the reaction, reacted with unlabeled nonencephalitogenic MOG peptide (aa 101-120) before application of the gold conjugates, or treated with gold-labeled irrelevant antigens (histone or MSA) or irrelevant IgG (anti-goat). The specificity of the labeling with the gold conjugates of encephalitogenic MOG peptides was also assessed in western blots where the MOG protein was first reacted with immune marmoset serum. […]"}, "[2]": {"system": "MOG- and MBP-specific autoantibodies in MS lesions", "test": "Immunogold-labeled peptide staining of human MS CNS tissue", "assay_type": "binding", "conditions": "acute human MS lesions", "protocol": "Immunogold labeling was performed on ultra-thin sections of frozen or fixed tissues. Gold conjugates were prepared of (1) three MOG peptides (amino acids [aa] 1-20, aa 21-40, and aa 41-60 of human MOG (SEQ ID NO:3)) with known encephalitogenic activity in marmosets; (2) one MOG peptide that has been shown not to be encephalitogenic in marmosets (aa 101-120); (3) one human myelin basic protein (MBP) peptide (aa 82-101) that is encephalitogenic in marmosets and immunodominant in humans with the DR2 haplotype; and, as a control, (4) a peptide of mouse serum albumin (MSA; aa 560-574). […] Immunoreactivity was detected on 1-μm epoxy sections of marmoset spinal cord tissue and active MS lesions. […]\nas §1"}}, "note": "Ends that are not written are not given here."}
{"substance": "MSA, aa 560-574: Nanogold conjugate of control peptide of mouse serum albumin aa 560-574 (KPKATAEQLKTVMDD; also: Nanogold conjugate, attachment not given here)", "values": [{"measurement": "labeling of vesiculated myelin networks by gold conjugate", "setting": "[1]", "result": "failed to label"}, {"measurement": "staining of vesiculated myelin networks by gold conjugate", "setting": "[2]", "result": "not"}]}
{"substance": "gold-conjugated MOG peptide (aa 21-40): Nanogold conjugate of human MOG peptide aa 21-40 (ELPCRISPGKNATGMEVGWY; also: Nanogold conjugate, attachment not given here)", "values": [{"measurement": "labeling of vesiculated myelin networks by gold conjugate", "setting": "[1]", "result": "Positive reactivity"}]}
{"substance": "MBP (aa 82-101): Nanogold conjugate of human myelin basic protein peptide aa 82-101 (PADPGSRPHLIRLFSRDAPG; also: Nanogold conjugate, attachment not given here)", "values": [{"measurement": "labeling of vesiculated myelin networks by gold conjugate", "setting": "[1]", "result": "failed to label"}, {"measurement": "staining of vesiculated myelin networks by gold conjugate", "setting": "[2]", "result": "to a lesser extent"}]}
